According to patent US20020177168A1, “Chemical sensor and method of detecting chemicals” (priority 2000, published 2002):

Key:
[1] = target: T1, bovine derivation odorant binding protein (OBPb) (Bos taurus, UniProt P07435); test: Fluorometry of OBPb with DMO and BPA at different concentrations (Inventive Example 2); settings: for attenuation of fluorescence intensity versus concentration: 10^−9 to 10^−6 M
T1 sequence (P07435 1-159): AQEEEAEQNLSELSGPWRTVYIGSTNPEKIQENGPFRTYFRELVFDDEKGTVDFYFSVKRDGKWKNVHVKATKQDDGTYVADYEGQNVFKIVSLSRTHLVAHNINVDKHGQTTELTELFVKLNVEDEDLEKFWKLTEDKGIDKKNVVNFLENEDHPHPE
Experimental: In preparation of the OBPb solution employed for Inventive Example 2, an OBPb solution of 250 nM in concentration was prepared by a method similar to that in Inventive Example 1.
In preparation of the DMO solutions and the BPA solutions employed for Inventive Example 2, on the other hand, two types of odorants of DMO and BPA were dissolved in ethanol (EtOH) respectively, for preparing a solution of 10^−2 M in concentration as to each odorant. Further, the DMO solution and the BPA solution of 10^−2 M in concentration prepared in the aforementioned manner were diluted with EtOH respectively, thereby preparing solutions of 10^−3 M, 10^−4 M, 10^−5 M and 10^−6 M in concentration respectively. Thus, DMO solutions and BPA solutions of 10^−3 M, 10^−4 M, 10^−5 M and 10^−6 M in concentration were prepared.
300 μl of the OBPb solution of 250 nM in concentration and 0.3 μl of each of the DMO solutions of 10^−3 M, 10^−4 M, 10^−5 M and 10^−6 M in concentration prepared in the aforementioned manner were mixed with each other thereby preparing sample solutions having final DMO concentrations of 10^−9 M, 10^−8 M, 10^−7 M and 10^−6 M respectively. Sample solutions having final concentrations of 10^−9 M, 10^−8 M, 10^−7 M and 10^−6 M respectively were prepared also as to BPA by a preparation method similar to that for the case of DMO.
After preparing the sample solutions in the aforementioned manner, the fluorescence intensity was measured as to each sample solution by a method similar to that in Inventive Example 1. Further, the relation between the concentrations and the fluorescence intensity of DMO and BPA was investigated on the basis of results at a point after a lapse of 20 minutes from initiation of measurement and at a point after a lapse of 30 minutes from initiation of measurement among results obtained by measuring the fluorescence intensity.
Also in this case, the point of initiation of measurement was set to the point of an elapsed time of 0 minutes while setting the fluorescence intensity at this point to 100% as a reference value for calculating a relative value of the fluorescence intensity at each point on the basis of this reference value.

OBP-del = target: T2, OBP-del (Bos taurus, UniProt P07435); test: Time variation of peaks of tryptophane difference fluorescence spectra, OBP-del; format: binding, bovine; settings: during bonding reaction, 0 to 60 minutes
T2 construct: made in house
T2 sequence (P07435 1-148): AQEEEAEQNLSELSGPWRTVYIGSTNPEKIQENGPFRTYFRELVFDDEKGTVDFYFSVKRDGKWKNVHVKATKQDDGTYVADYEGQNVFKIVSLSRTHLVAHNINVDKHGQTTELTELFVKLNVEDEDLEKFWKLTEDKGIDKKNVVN
Description: (§1) Then, time variations of peaks of fluorescence spectra of tryptophane in central pockets CP bonded with odorants were investigated as to DMO and geraniol employed as odorants.
(§2) When tryptophane is in OBPb, the peak wavelength of the fluorescence spectrum of tryptophane is 345 nm. In general, the fluorescence wavelength of tryptophane shifts to a longer wavelength in hydrophilic environment, and shifts to a shorter wavelength in hydrophobic environment. At this point, a fluorescence spectrum upon bonding with an odorant was measured for calculating difference between the same and a spectrum at 0 minutes and investigating the relation between the peak intensity and the elapsed time.
(§3) The difference spectrum was calculated by subtracting the fluorescence spectrum at each time from the fluorescence spectrum at 0 minutes. When a peak of the fluorescence spectrum at a certain time shifts to a shorter wavelength beyond 345 nm (i.e., rendered hydrophobic), therefore, it follows that the peak of the difference spectrum shifts to a longer wavelength beyond 345 nm to the contrary.

[2] = target: T1, bovine derivation odorant binding protein (OBPb); test: Fluorometry of tryptophane fluorescence of OBPb with four odorants (Inventive Example 1); settings: for affinity for the OBPb (relative, among the four odorants): FIG. 4(b); for reduction of the fluorescence intensity: odorant 10 μM, OBPb 250 nM, excitation 280 nm, fluorescence 340 nm, among the four odorants, FIG. 4(b) at 10 minutes
Experimental: In order to prepare the OBPb solution employed for Inventive Example 1, bovine derivation odorant binding protein (OBPb) was first dissolved in a phosphate buffer (PBS; phosphate buffered saline), and PBS was further added to this OBPb solution for diluting the same until the concentration of the solution reached 250 nM.
In order to prepare the odorant solution employed for Inventive Example 1, four types of odorants, i.e., dimethyl octanol (DMO), citronellal, citronellol and geraniol were dissolved in ethanol solutions (EtOH) respectively, for preparing an odorant solution of 10^−2 M in concentration as to each odorant.
300 μl of the OBPb solution of 250 nM in concentration and 0.3 μl of each odorant solution of 10^−2 M in concentration prepared in the aforementioned manner were mixed with each other for preparing a sample solution employed for measuring fluorescence intensity as to each of the four types of odorants. In this case, the final concentration of the odorant in each sample solution is 10 μM. A sample of only OBPb containing no odorant, i.e., that obtained by mixing an OBPb solution and an ethanol solution with each other, was also prepared as a comparative sample.
Each sample solution prepared in the aforementioned manner was introduced into a quartz cell for fluorescence while sealing an opening for preventing evaporation. The aforementioned cell was set in a cell holder of a fluorometer (F-4000 by Hitachi, Ltd.) and left to stand for 10 minutes for temperature balancing.
In measurement of the fluorescence intensity of each sample solution, a shutter of the fluorometer was first opened for irradiating the sample solution with light of 280 nm in wavelength from a slit of 10 nm in width and exciting tryptophane constituting the OBPb contained in the sample solution. Fluorescence of 340 nm in wavelength obtained from the tryptophane excited in this manner was taken out through the slit of 10 nm in width, for measuring the intensity of the obtained fluorescence.
In this case, the switching time for the shutter of the fluorometer was set to two seconds for opening/closing the shutter at intervals of five minutes and measuring the fluorescence intensity of the sample solution over 30 minutes.
Referring to FIG. 4, the point of initiation of measurement is set to the point of the elapsed time of 0 minutes, and the fluorescence intensity of the sample solution at this point is set to 100%. Thus, the fluorescence intensity at the elapsed time of 0 minutes, i.e., the point of initiation of measurement was set to 100% as to each sample solution for regarding this as a reference value and calculating a relative value of the fluorescence at each point every five minutes on the basis of this reference value.

OBPb [3] = target: T3, OBPb (Bos taurus, UniProt P07435); test: Dissociation constant KD of odorant for OBPb; format: binding, bovine; settings: affinity of odorant for OBPb
T3 sequence (P07435 1-159): T1 sequence (P07435 1-159)

OBPb bonded with AMA = target: T4, OBPb bonded with AMA (Bos taurus, UniProt P07435); test: Substitution of AMA bonded to OBPb by other odorants (AMA and tyrosine fluorescence); format: binding, bovine; settings: for fluorescence intensity of tyrosine on adding the odorant: ex 250 nm, em 300 nm, immediately after addition (0 minutes); for fluorescence intensity of AMA / dissociation of AMA from OBPb on adding the odorant: ex 295 nm, em 481 nm, 0 minutes
T4 sequence (P07435 1-159): T1 sequence (P07435 1-159)
Experimental: Further, investigation was made as to how an odorant once bonded to OBPb behaves when other odorants are thereafter bonded. Aminoanthracene (AMA) which is a fluorescent odorant was employed as a previously bonded odorant, and DMO and geraniol were used as odorants added to the AMA bond.
(§4) An OBPb solution of 10 μM in concentration was prepared. AMA, DMO and geraniol were dissolved in ethanol respectively, for preparing an AMA solution, a DMO solution and a geraniol solution of 10^−2 M in concentration.
First, 0.1 μl of an AMA solution was added to 100 μl of an OBPb solution, and left to stand at 25° C. for one hour for bonding AMA to OBPb. Phosphate buffer saline (PBS) was added to this solution up to 4 ml (diluted to 40 times), 4 μl of ethanol, DMO or geraniol was added and thereafter parts of 300 μl were taken out after lapses of 0, 5, 10, 15, 20, 25, 30, 40 and 60 minutes for measuring fluorescence intensity of AMA (excitation wavelength: 295 nm, measurement wavelength: 481 nm) and fluorescence intensity of […].
In measurement of the fluorescence intensity of tyrosine, the excitation wavelength is 250 nm, and the measurement wavelength is 300 nm. Tyrosine is present in an internal cavity of a monomer of OBPb. Therefore, dissociation of the odorant from the internal cavity IC can be measured by change of the fluorescence intensity of tyrosine (the fluorescence reduces when tyrosine becomes hydrophilic).

[4] = target: T5, OBPb-norm central pocket CP (Bos taurus, UniProt P07435); test: Time variation of peaks of tryptophane difference fluorescence spectra, OBPb-norm; format: binding, bovine; settings: 0 to 60 minutes after addition
T5 sequence (P07435 1-159): T1 sequence (P07435 1-159)
Description: as §1, §2, §3

OBPb [5] = target: T3, OBPb; test: Time variation of tryptophane and AMA fluorescence upon addition of AMA to OBPb; format: binding, bovine; settings: ex 295 nm
Experimental: as §4
Then, time variations of fluorescence from AMA and fluorescence from tryptophane upon addition of AMA were measured. FIG. 13 illustrates results of measurement of fluorescence intensity change of tryptophane bonded with AMA. The excitation wavelength for tryptophane is 295 nm, and the fluorescence wavelength is 340 nm. FIG. 14 illustrates results of measurement of fluorescence intensity change of AMA bonded with […]. The excitation wavelength for AMA is 295 nm, and the fluorescence wavelength is 480 nm. Referring to FIGS. 13 and 14, the horizontal axes show post-addition elapsed times, and the vertical axis show relative fluorescence intensity difference levels. The relative fluorescence intensity difference was calculated by dividing the difference between fluorescence intensity at a time 0 and fluorescence intensity at each time by the fluorescence intensity at the time 0.

OBPb-norm (normal OBPb) = target: T6, OBPb-norm (normal OBPb) (Bos taurus, UniProt P07435); test: Relative tryptophane fluorescence intensity change after DMO addition, OBPb-norm; format: binding, bovine; settings: DMO 10 μM, OBPb 250 nM, 25 degrees, ex 295 nm, em 340 nm
T6 sequence (P07435 1-159): T1 sequence (P07435 1-159)
Experimental: (§5) OBPb-norm shown in FIG. 7(a) is normal (unvaried) OBPb. OBPb-del shown in FIG. 7(b) is OBPb obtained by deleting Phe (phenylalanine) 149 up to Glu (glutamic acid) 159.
(§6) As to the OBPb-norm and the OBP-del, the relation between post-addition elapsed times and change of relative fluorescence intensity was investigated by adding dimethyl octanol (DMO) employed as an odorant to OBPb solutions.
(§7) The concentration of OBPb in PBS was set to 250 nM, and the concentration of a DMO solution was set to 10 μM. The DMO solution was added to the OBPb solution, which in turn was thereafter incubated at 25 degrees, for taking out part at each time and measuring fluorescence (excitation wavelength: 295 nm, fluorescence wavelength: 340 nm) of tryptophane present in the central pocket CP.
(§8) The difference in relative fluorescence intensity was calculated by dividing the difference between fluorescence intensity at a time 0 and fluorescence intensity at each time by the fluorescence intensity at the time 0.

[6] = target: T7, OBPb-del (OBPb with Phe 149 up to Glu 159 deleted) (Bos taurus, UniProt P07435); test: Relative tryptophane fluorescence intensity change after DMO addition, OBP-del; format: binding, bovine; settings: DMO 10 μM, OBPb 250 nM, 25 degrees, ex 295 nm, em 340 nm
T7 construct: made in house
T7 sequence (P07435 1-148): T2 sequence (P07435 1-148)
Experimental: as §5, §6, §7, §8

SMILES | attenuation of fluorescence intensity versus concentration ([1]; after 20 and 30 minutes) | range in which discrimination based on the fluorescence intensity is possible ([1]; after 20 and 30 minutes) | range in which discrimination based on the fluorescence intensity is possible ([1]; conversion of 10^−9 M) | peak wavelengths of the difference spectra of tryptophane (OBP-del) | affinity for the OBPb (relative, among the four odorants) [2] | reduction of the fluorescence intensity [2] | Kd (OBPb [3]) | fluorescence intensity of tyrosine on adding the odorant (OBPb bonded with AMA) | fluorescence intensity of AMA / dissociation of AMA from OBPb on adding the odorant (OBPb bonded with AMA) | bonding to the central pocket CP (from peak wavelengths of difference spectra) [4] | fluorescence intensity of tryptophane after addition of AMA (OBPb [5]; em 340 nm) | fluorescence intensity of AMA after addition of AMA (OBPb [5]; em 480 nm) | relative fluorescence intensity change of tryptophane with time (OBPb-norm (normal OBPb)) | relative fluorescence intensity change of tryptophane with time [6]
CC(C)(c1ccc(O)cc1)c1ccc(O)cc1 [BPA, bisphenol A] | attenuation of the fluorescence intensity is reduced as the concentration of DMO or BPA is increased | 10^−9 M | about 200 ppt |  |  |  |  |  |  |  |  |  |  | 
CC(C)=CCC/C(C)=C/CO [geraniol] |  |  |  | remained unchanged | lowest affinity | at the maximum | ~3000 nM | reduction of the fluorescence intensity was observed | AMA dissociates immediately after addition | remains bonded to the central pocket CP |  |  |  | 
Nc1cccc2cc3ccccc3cc12 [AMA, Aminoanthracene] |  |  |  |  |  |  | ~1300 nM |  |  |  | temporarily reduces after addition of AMA and thereafter increases | increases after addition of AMA, takes a constant value and thereafter reduces |  | 
CC(C)CCCC(C)CCO (stereo not shown) [DMO] | attenuation of the fluorescence intensity is reduced as the concentration of DMO or BPA is increased | 10^−9 M | about 200 ppt | remained unchanged | highest affinity | at the minimum | ~300 nM | No change of the fluorescence intensity was observed | AMA dissociates immediately after addition | dissociates after being bonded to the central pocket CP |  |  | rises with time | no variation with presence/absence of the odorant
